# Measurements reported in the kinase profiling compilation of Christmann-Franck et al. (2016).
# How the values were obtained:
# Assay in all cases: KINOMEscan competition binding
# Details in all cases: compound 10.0 µM
# AURKB (human) = AURKB (human) (UniProt Q96GD4)
# BMPR2 (human) = BMPR2 (human) (UniProt Q13873)
# BRAF (human) = BRAF (human) (UniProt P15056)
# BTK (human) = BTK (human) (UniProt Q06187)
# CAMKK1 (human) = CAMKK1 (human) (UniProt Q8N5S9)
# CDK2 (human) = CDK2 (human) (UniProt P24941)
# CDK4 CCND3 (human) = CDK4 CCND3 (human) (UniProt P11802+P30281)
# CSNK1A1 (human) = CSNK1A1 (human) (UniProt P48729)
# CSNK1G3 (human) = CSNK1G3 (human) (UniProt Q9Y6M4)
# CaMK1 (human) = CaMK1 (human) (UniProt Q14012)
# EGFR (human) = EGFR (human) (UniProt P00533)
# EIF2AK2 (human) = EIF2AK2 (human) (UniProt P19525)
# EPHA5 (human) = EPHA5 (human) (UniProt P54756)
# ERN1 (human) = ERN1 (human) (UniProt O75460)
# FGFR3 (human) = FGFR3 (human) (UniProt P22607)
# FYN (human) = FYN (human) (UniProt P06241)
# HUNK (human) = HUNK (human) (UniProt P57058)
# ICK (human) = ICK (human) (UniProt Q9UPZ9)
# IKBKB (human) = IKBKB (human) (UniProt O14920)
# LCK (human) = LCK (human) (UniProt P06239)
# MAPK11 (human) = MAPK11 (human) (UniProt Q15759)
# MAPK8 (human) = MAPK8 (human) (UniProt P45983)
# MAPKAPK2 (human) = MAPKAPK2 (human) (UniProt P49137)
# NEK1 (human) = NEK1 (human) (UniProt Q96PY6)
# NEK11 (human) = NEK11 (human) (UniProt Q8NG66)
# NEK2 (human) = NEK2 (human) (UniProt P51955)
# NEK9 (human) = NEK9 (human) (UniProt Q8TD19)
# NTRK1 (human) = NTRK1 (human) (UniProt P04629)
# NUAK2 (human) = NUAK2 (human) (UniProt Q9H093)
# PAK7 (human) = PAK7 (human) (UniProt Q9P286)
# PIK3C2B (human) = PIK3C2B (human) (UniProt O00750)
# PIP5K1C (human) = PIP5K1C (human) (UniProt O60331)
# PRKACB (human) = PRKACB (human) (UniProt P22694)
# RPS6KA5 KD1 (human) = RPS6KA5 KD1 (human) (UniProt O75582)
# RPS6KA5 KD2 (human) = RPS6KA5 KD2 (human) (UniProt O75582)
# TNK2 (human) = TNK2 (human) (UniProt Q07912)
# VRK2 (human) = VRK2 (human) (UniProt Q86Y07)
# WNK1 (human) = WNK1 (human) (UniProt Q9H4A3)
# WNK3 (human) = WNK3 (human) (UniProt Q9BYP7)
# WNK3 (human), sequence (Q9BYP7 whole entry, looked up): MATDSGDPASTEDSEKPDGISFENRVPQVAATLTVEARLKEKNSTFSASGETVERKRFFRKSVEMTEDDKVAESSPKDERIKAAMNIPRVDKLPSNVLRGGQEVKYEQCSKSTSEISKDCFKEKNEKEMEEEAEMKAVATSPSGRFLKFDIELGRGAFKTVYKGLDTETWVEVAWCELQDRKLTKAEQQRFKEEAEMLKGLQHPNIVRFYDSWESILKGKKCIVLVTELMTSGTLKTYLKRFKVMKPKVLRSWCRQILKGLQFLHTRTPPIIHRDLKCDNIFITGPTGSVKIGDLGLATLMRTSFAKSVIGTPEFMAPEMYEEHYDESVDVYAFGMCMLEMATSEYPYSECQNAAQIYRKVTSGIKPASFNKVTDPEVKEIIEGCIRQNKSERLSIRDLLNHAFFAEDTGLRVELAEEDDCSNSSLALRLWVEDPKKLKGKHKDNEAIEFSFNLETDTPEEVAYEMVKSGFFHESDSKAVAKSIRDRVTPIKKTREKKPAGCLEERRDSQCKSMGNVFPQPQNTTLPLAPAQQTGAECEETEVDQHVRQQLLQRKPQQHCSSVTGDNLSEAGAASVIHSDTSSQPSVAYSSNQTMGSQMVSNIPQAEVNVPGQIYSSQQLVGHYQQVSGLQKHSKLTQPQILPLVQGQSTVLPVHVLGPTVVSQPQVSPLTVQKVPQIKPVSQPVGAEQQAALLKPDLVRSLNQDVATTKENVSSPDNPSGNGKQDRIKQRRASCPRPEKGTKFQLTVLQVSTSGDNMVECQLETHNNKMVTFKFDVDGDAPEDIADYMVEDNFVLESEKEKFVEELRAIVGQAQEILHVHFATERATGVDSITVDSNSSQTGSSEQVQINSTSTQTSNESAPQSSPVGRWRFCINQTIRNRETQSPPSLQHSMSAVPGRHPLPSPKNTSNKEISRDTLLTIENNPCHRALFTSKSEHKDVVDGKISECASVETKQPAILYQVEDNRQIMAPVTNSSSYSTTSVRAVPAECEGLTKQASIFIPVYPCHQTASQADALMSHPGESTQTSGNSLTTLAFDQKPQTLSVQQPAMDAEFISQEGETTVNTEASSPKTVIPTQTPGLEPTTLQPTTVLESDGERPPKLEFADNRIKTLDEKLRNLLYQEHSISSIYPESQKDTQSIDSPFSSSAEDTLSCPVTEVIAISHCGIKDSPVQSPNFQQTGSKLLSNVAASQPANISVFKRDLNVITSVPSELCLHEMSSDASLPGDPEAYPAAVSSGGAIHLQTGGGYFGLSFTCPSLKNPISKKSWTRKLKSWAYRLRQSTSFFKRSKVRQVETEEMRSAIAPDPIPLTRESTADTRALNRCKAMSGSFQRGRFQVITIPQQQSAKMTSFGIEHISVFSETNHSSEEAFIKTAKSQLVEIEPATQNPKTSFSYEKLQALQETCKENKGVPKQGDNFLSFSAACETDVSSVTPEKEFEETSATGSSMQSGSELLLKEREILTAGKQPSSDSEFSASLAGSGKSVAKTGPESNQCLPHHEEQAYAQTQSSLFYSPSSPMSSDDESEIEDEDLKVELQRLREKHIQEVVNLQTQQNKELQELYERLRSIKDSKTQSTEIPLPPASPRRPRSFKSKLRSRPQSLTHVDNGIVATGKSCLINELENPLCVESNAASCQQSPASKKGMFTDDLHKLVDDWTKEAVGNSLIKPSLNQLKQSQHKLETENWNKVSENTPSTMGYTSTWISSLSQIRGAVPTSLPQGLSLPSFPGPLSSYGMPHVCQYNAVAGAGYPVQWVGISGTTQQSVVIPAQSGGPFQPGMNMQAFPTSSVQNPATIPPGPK
# ICK (human), sequence (Q9UPZ9 whole entry, looked up): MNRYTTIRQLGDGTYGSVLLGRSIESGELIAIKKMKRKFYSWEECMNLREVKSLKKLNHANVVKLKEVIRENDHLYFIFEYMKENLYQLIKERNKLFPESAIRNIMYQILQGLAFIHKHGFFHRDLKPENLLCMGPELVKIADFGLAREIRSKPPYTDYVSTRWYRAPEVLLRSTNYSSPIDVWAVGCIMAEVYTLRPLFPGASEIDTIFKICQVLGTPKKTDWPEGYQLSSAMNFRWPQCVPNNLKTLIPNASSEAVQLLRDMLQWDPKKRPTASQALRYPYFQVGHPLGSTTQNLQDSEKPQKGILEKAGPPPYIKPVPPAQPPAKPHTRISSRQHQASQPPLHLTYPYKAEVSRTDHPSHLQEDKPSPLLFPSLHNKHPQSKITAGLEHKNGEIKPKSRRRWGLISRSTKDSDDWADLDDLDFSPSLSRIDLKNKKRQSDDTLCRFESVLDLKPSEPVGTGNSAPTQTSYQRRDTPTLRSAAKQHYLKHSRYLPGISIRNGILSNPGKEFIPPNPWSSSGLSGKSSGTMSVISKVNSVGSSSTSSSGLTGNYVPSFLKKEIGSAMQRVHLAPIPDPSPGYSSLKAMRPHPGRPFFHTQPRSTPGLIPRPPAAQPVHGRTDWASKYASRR
# EIF2AK2 (human), sequence (P19525 whole entry, looked up): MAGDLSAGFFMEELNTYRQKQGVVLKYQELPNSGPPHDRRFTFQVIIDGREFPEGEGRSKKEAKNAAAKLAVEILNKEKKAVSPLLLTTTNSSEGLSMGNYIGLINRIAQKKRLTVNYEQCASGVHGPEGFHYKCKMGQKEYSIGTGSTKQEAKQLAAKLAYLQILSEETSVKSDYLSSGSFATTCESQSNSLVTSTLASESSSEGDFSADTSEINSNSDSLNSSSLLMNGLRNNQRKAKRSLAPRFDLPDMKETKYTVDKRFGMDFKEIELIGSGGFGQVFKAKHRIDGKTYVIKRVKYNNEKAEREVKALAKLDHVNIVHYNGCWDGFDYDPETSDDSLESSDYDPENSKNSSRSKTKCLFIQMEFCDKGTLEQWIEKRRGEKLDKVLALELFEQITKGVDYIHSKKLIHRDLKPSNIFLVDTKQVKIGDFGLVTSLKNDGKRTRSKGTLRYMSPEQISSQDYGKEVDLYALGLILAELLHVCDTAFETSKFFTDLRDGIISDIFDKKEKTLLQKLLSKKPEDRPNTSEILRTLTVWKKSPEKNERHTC
# PAK7 (human), sequence (Q9P286 whole entry, looked up): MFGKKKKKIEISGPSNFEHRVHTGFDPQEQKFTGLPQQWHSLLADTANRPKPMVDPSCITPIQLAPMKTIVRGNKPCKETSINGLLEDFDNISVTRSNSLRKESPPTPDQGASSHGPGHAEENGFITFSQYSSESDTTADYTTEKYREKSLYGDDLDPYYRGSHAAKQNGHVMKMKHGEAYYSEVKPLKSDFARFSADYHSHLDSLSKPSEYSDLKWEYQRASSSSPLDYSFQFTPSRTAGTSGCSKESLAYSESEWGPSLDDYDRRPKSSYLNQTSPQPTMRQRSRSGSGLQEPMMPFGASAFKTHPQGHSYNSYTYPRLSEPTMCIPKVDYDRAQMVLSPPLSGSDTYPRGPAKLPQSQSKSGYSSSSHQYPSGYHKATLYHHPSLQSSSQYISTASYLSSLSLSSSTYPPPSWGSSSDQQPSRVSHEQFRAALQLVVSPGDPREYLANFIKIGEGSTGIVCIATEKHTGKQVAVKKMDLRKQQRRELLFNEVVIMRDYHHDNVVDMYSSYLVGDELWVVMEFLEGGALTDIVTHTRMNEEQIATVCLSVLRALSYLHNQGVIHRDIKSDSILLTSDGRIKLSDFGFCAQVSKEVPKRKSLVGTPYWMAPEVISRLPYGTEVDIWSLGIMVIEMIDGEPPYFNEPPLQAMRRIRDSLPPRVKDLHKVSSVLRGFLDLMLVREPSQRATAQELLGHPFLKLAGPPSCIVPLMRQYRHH
# FGFR3 (human), sequence (P22607 whole entry, looked up): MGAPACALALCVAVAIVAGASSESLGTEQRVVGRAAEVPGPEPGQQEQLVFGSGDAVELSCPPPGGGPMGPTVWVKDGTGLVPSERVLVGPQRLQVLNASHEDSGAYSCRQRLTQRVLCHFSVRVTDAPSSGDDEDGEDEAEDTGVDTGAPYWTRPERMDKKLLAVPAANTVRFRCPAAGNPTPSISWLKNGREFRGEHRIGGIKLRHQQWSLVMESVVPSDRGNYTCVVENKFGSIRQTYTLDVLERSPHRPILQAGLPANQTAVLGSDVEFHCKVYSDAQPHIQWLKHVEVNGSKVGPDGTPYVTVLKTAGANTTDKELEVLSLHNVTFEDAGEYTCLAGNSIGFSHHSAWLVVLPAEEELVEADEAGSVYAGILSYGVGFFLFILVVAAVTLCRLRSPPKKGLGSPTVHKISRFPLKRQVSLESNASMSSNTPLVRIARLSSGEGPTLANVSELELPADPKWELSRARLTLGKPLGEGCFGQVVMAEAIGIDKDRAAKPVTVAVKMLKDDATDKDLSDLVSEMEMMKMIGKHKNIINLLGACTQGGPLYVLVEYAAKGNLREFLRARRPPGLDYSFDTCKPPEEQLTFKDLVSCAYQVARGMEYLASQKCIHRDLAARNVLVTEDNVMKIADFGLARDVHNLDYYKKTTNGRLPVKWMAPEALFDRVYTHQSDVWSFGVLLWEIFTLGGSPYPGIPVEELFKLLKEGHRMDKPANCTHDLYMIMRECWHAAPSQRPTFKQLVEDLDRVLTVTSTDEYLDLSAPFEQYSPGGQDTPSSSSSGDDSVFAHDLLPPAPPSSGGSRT
# CSNK1A1 (human), sequence (P48729 whole entry, looked up): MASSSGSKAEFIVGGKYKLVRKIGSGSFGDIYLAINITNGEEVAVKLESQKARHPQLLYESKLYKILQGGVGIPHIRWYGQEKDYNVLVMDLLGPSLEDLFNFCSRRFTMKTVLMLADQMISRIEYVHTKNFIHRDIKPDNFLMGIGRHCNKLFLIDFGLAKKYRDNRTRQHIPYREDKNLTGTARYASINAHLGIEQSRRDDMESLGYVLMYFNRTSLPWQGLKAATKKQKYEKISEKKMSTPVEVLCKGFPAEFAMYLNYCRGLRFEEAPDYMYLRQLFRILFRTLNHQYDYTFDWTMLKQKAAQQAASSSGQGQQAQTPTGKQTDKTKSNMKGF
smiles,measurement,setting,value
O=c1[nH]c2ccccc2n1C1CCN(Cc2ccc(-c3nc4cc5[nH]cnc5cc4nc3-c3ccccc3)cc2)CC1,"kinase still bound, per cent of control",AURKB (human),91%
same,"kinase still bound, per cent of control",BMPR2 (human),100%
same,"kinase still bound, per cent of control",BRAF (human),87%
same,"kinase still bound, per cent of control",BTK (human),100%
same,"kinase still bound, per cent of control",CAMKK1 (human),100%
same,"kinase still bound, per cent of control",CDK2 (human),92%
same,"kinase still bound, per cent of control",CDK4 CCND3 (human),100%
same,"kinase still bound, per cent of control",CSNK1A1 (human),50%
same,"kinase still bound, per cent of control",CSNK1G3 (human),93%
same,"kinase still bound, per cent of control",CaMK1 (human),87%
same,"kinase still bound, per cent of control",EGFR (human),65%
same,"kinase still bound, per cent of control",EIF2AK2 (human),100%
same,"kinase still bound, per cent of control",EPHA5 (human),100%
same,"kinase still bound, per cent of control",ERN1 (human),66%
same,"kinase still bound, per cent of control",FGFR3 (human),92%
same,"kinase still bound, per cent of control",FYN (human),100%
same,"kinase still bound, per cent of control",HUNK (human),72%
same,"kinase still bound, per cent of control",ICK (human),91%
same,"kinase still bound, per cent of control",IKBKB (human),79%
same,"kinase still bound, per cent of control",LCK (human),72%
same,"kinase still bound, per cent of control",MAPK11 (human),95%
same,"kinase still bound, per cent of control",MAPK8 (human),79%
same,"kinase still bound, per cent of control",MAPKAPK2 (human),100%
same,"kinase still bound, per cent of control",NEK1 (human),100%
same,"kinase still bound, per cent of control",NEK11 (human),100%
same,"kinase still bound, per cent of control",NEK2 (human),100%
same,"kinase still bound, per cent of control",NEK9 (human),88%
same,"kinase still bound, per cent of control",NTRK1 (human),100%
same,"kinase still bound, per cent of control",NUAK2 (human),67%
same,"kinase still bound, per cent of control",PAK7 (human),58%
same,"kinase still bound, per cent of control",PIK3C2B (human),54%
same,"kinase still bound, per cent of control",PIP5K1C (human),29%
same,"kinase still bound, per cent of control",PRKACB (human),100%
same,"kinase still bound, per cent of control",RPS6KA5 KD1 (human),100%
same,"kinase still bound, per cent of control",RPS6KA5 KD2 (human),99%
same,"kinase still bound, per cent of control",TNK2 (human),100%
same,"kinase still bound, per cent of control",VRK2 (human),76%
same,"kinase still bound, per cent of control",WNK1 (human),89%
same,"kinase still bound, per cent of control",WNK3 (human),95%
